From ChEMBL document CHEMBL4417626, “Post-Translational Regulation of Catalytic Activities of Cytochrome P450 46A1 and Uses Thereof” (2017)
Activity calls are given as the source filed them. The calls are words filed in the database; no cut-off is given here.

How the values were obtained:
[1] = molecular target: T1, Cholesterol 24-hydroxylase (Homo sapiens, UniProt Q9Y6A2); assay: Inhibition of full-length recombinant human CYP46A1 assessed as cholesterol hydroxylation using cholesterol as substrate in presence of NADPH cytochrome P450 oxidoreductase by gas chromatography-mass spectrometry
Target sequence in this assay (Q9Y6A2 whole entry): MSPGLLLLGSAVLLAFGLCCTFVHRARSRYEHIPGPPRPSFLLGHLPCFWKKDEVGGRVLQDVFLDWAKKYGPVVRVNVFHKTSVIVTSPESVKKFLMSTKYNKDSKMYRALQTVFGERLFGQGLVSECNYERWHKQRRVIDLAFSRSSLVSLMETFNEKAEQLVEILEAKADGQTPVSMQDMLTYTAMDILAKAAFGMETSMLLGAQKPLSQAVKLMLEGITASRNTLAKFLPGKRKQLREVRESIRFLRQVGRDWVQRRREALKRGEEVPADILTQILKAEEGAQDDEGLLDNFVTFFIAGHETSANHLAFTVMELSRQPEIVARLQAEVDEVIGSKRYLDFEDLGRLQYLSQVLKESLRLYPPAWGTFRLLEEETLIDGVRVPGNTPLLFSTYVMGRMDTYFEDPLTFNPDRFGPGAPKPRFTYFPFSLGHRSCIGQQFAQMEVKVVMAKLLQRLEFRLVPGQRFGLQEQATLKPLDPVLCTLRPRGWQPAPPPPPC

[2] = molecular target: T1, Cholesterol 24-hydroxylase; assay: Stimulation of full-length recombinant human CYP46A1 assessed as cholesterol hydroxylation at 43 uM using cholesterol as substrate in presence of NADPH cytochrome P450 oxidoreductase by gas chromatography-mass spectrometry
Target sequence in this assay (Q9Y6A2 whole entry, looked up): as the sequence (Q9Y6A2 whole entry) above

[3] = molecular target: T1, Cholesterol 24-hydroxylase; assay: Binding affinity to full-length recombinant human CYP46A1 by spectral binding study
Target sequence in this assay (Q9Y6A2 whole entry, looked up): as the sequence (Q9Y6A2 whole entry) above

[4] = molecular target: T2, Cholesterol side-chain cleavage enzyme, mitochondrial (Bos taurus, UniProt P00189); assay: Binding affinity to active site of bovine CYP11A1 assessed as induction of type-II spectral response by spectral binding study; details: cattle
T2 sequence (P00189 whole entry): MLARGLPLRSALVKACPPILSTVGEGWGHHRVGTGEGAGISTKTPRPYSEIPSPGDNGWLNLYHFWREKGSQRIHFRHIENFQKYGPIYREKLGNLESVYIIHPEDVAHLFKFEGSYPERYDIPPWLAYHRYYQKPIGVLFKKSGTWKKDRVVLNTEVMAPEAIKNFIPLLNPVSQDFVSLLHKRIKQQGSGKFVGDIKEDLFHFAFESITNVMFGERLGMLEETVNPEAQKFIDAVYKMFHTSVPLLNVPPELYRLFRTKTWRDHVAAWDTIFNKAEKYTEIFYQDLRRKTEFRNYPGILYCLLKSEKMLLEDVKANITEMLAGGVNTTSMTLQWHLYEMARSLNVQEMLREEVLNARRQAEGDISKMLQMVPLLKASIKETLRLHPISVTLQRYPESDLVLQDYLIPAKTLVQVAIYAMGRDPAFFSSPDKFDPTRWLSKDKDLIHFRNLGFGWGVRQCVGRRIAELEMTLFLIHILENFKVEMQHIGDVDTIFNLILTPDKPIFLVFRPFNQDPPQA

[5] = test system: Mus musculus; assay: In-vivo inhibition of CYP46A1 in C57/B6J mouse plasma assessed as reduction in 24S-hydroxy cholesterol at 60 mg/kg, ip dosed qd for 5 days by isotope dilution mass-spectrometry relative to control; assay type: functional; details: 120 h
[6] = molecular target: T1, Cholesterol 24-hydroxylase; assay: Binding affinity to active site of full-length recombinant human CYP46A1 assessed as induction of type-II spectral response with minimum at 413 nm and maximum at 434 nm by spectral binding study
Target sequence in this assay (Q9Y6A2 whole entry, looked up): as the sequence (Q9Y6A2 whole entry) above

[7] = species on record: Mus musculus; details: C57/B6J, 60 mg/kg
Description: In-vivo inhibition of CYP46A1 in C57/B6J mouse brain assessed as reduction in lathosterol level at 60 mg/kg, ip dosed qd for 5 days by isotope dilution mass-spectrometry relative to control

[8] = species on record: Mus musculus; details: C57/B6J, 75 mg/kg
[9] = molecular target: T3, Sterol 26-hydroxylase, mitochondrial (Homo sapiens) (UniProt Q02318); assay: Binding affinity to full-length recombinant human CYP27A1 assessed as induction of spectral shift up to 100 uM by spectral binding study
T3 sequence (whole entry): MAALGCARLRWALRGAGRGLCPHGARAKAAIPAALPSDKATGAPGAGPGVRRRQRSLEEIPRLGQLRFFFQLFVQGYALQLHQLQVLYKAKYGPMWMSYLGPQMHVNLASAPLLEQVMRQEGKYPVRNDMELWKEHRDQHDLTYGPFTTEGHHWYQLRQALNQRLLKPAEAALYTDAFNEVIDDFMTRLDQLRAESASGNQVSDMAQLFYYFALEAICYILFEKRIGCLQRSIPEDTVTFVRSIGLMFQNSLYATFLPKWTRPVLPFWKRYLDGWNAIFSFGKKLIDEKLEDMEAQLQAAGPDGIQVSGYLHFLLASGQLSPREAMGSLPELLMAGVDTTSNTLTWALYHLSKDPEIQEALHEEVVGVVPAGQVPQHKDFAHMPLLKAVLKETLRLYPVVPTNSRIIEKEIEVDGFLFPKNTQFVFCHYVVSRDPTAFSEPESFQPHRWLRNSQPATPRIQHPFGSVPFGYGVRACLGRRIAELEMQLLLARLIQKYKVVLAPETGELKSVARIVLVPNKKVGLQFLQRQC

[10] = species on record: Mus musculus; details: C57/B6J, 60 mg/kg; remark: listed apart in the source

Compound	Activity [2] [%]	further results
CC(=O)[C@H]1CC[C@H]2[C@@H]3CC=C4C[C@@H](OS(=O)(=O)O)CC[C@]4(C)[C@H]3CC[C@]12C	–	Ki [1]: 2500 nM
COc1ccc(NC(C)=O)cc1	100	–
CC(=O)Nc1cccc(O)c1	87	–
CC(=O)[C@H]1CC[C@H]2[C@@H]3CC=C4C[C@@H](O)CC[C@]4(C)[C@H]3CC[C@]12C	–	Activity [3]: inactive
CCCCOc1ccc(NC(C)=O)cc1	107	–
C[C@@H](c1ncncc1F)[C@](O)(Cn1cncn1)c1ccc(F)cc1F [VORICONAZOLE]	–	Activity [4]: Active; inhibition in vivo at 60 mg/kg [5]: 30%; Activity [6]: Active; inhibition [7]: Active; inhibition [8]: Active; Activity [9]: inactive; inhibition [10]: Active
CCOc1ccc(NC(=O)CC)cc1	101	–
CC(=O)Nc1ccc(C)cc1	112	–
CCOc1ccc(N)cc1	50	–
CC(=O)Nc1ccccc1O	103	–
CC(=O)Nc1ccc(CO)cc1	112	–
CC(=O)Nc1ccc(O)cc1	132	–
